Measurements: PubChem BioAssay (NCI)
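Briefly, cells in 96-well plates were exposed to five compound concentrations for 48 h, and endpoints were estimated by linear interpolation. Abbreviation: GI50, concentration required for 50% inhibition of growth. TGI denotes the concentration required for complete inhibition of growth.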

Key:
Test in all cases: NCI-60 cell line screen, 48 h
RXF 393 renal = system: RXF 393 renal
SN12C renal = system: SN12C renal
SF-539 CNS = system: SF-539 CNS
CAKI-1 renal = system: CAKI-1 renal
A498 renal = system: A498 renal
NCI-H226 lung = system: NCI-H226 lung
HL-60(TB) leukemia = system: HL-60(TB) leukemia
HCT-116 colon = system: HCT-116 colon
MALME-3M melanoma = system: MALME-3M melanoma
SK-MEL-2 melanoma = system: SK-MEL-2 melanoma

| Structure (SMILES) | TGI (RXF 393 renal) [µM] | TGI (SN12C renal) [µM] | TGI (SF-539 CNS) [µM] | TGI (CAKI-1 renal) [µM] | TGI (A498 renal) [µM] | TGI (NCI-H226 lung) [µM] | TGI (HL-60(TB) leukemia) [µM] | TGI (HCT-116 colon) [µM] | TGI (MALME-3M melanoma) [µM] | TGI (SK-MEL-2 melanoma) [µM] | GI50 (RXF 393 renal) [µM] | GI50 (SN12C renal) [µM] | GI50 (SF-539 CNS) [µM] | GI50 (CAKI-1 renal) [µM] | GI50 (A498 renal) [µM] | GI50 (NCI-H226 lung) [µM] | GI50 (HL-60(TB) leukemia) [µM] | GI50 (MALME-3M melanoma) [µM] | GI50 (SK-MEL-2 melanoma) [µM] |
| --- | --- | --- | --- | --- | --- | --- | --- | --- | --- | --- | --- | --- | --- | --- | --- | --- | --- | --- | --- |
| O=C(O)c1ccc(NC(c2ccccc2)c2ccc3cccnc3c2O)cc1 (centres undefined) | 28.8 | > 54.1 | 25.9 | 59.2 | 78.4 | > 31 | 10.4 | > 100 | > 100 | > 100 |  |  |  |  |  |  |  |  |  |
| O=C1CC(=O)N(c2ccccc2)N1/C(=C/c1ccccc1)c1ccccc1 | 36.5 | 44.8 |  | 33.7 |  | 73.5 |  | 32 |  | 69 |  |  |  |  |  |  |  |  |  |
| COc1ccc(Nc2[nH]c(C(C)=O)c(N)c2C(=S)Nc2ccccc2)cc1 | 77.7 | > 100 | > 100 | > 100 | > 100 | > 100 | > 100 | > 100 | > 100 | > 100 |  |  |  |  |  |  |  |  |  |
| O=C(NS(=O)(=O)Nc1ccc(Cl)cc1)OCc1ccc(Cl)cc1Cl |  | 63 | 40.6 |  | 38.8 |  | 87.2 | 45.5 | 47.5 | 90.2 |  |  |  |  |  |  |  |  |  |
| CCC(=O)C(c1ccccc1)c1ccccn1 (centres undefined) | > 100 | > 100 |  | > 100 | > 100 | > 100 | > 100 | > 100 | > 100 | > 100 |  |  |  |  |  |  |  |  |  |
| C=CC(=O)Nc1cccc(-c2nc(SC)nc(Nc3ccccc3OC)c2C#N)c1 | 5.42 | 8.15 | 4.53 | 4.3 | 9.34 | 36.1 | 13 |  | 3.44 | 8.58 | 1.95 | 2.5 | 1.93 | 1.71 | 2.8 | 9.7 | 2.53 | 1.54 | 2.56 |
| C/C(=N\NC(=S)NC(C)C)c1nc2ncccc2[nH]1 | > 100 | > 100 | > 85 | > 89.1 | > 100 | 51.3 | > 100 | > 100 | > 100 | > 77.6 |  |  |  |  |  |  |  |  |  |
| Cc1[nH]c(/C=C2\C(=O)Nc3ccc(S(=O)(=O)Cc4c(Cl)cccc4Cl)cc32)c(C)c1C(=O)N1CCC[C@@H]1CN1CCCC1 |  | 2.57 | 2.89 | 13.6 | 52.8 | 54.8 | 5.49 |  |  | 53.1 |  | 1.24 | 1.51 | 5.05 | 18.7 | 15.1 | 1.97 |  | 12.5 |
| Nc1n[nH]c(=O)[nH]1 | > 100 | > 100 | > 100 | > 100 | > 100 | > 100 | > 100 | > 100 | > 100 | > 100 |  |  |  |  |  |  |  |  |  |
| CSC1=Nc2ccccc2N(C)c2c1c(-c1ccccc1)nn2C | > 100 | > 100 | > 100 | > 100 |  |  | 34.3 | > 100 |  | 82.7 |  |  |  |  |  |  |  |  |  |
| CCn1cc(C(c2ccc(Cl)cc2)n2ccnc2)c2cc(Br)ccc21 (centres undefined) | 29.9 | > 100 | 41.3 | 27.3 | 27 | 76.5 |  | 33.8 | 32.7 | 38.8 |  |  |  |  |  |  |  |  |  |
| N#Cc1c(NC(=S)NC(=O)c2ccccc2)nc2c(c1-c1ccccc1)CCC2 |  | > 100 | > 100 | > 100 |  |  | > 100 | > 100 | > 100 |  |  |  |  |  |  |  |  |  |  |
| CC(C)CC(N)C(=O)OCN1C(=O)C2C3C=CC(C2C1=O)C1C2C(=O)N(COC(=O)C(N)CC(C)C)C(=O)C2C31 (centres undefined) | > 100 | > 100 | > 100 | > 100 | > 100 | > 100 | 65.2 | > 60.5 | > 100 | > 100 |  |  |  |  |  |  |  |  |  |
| Nc1ccccc1Nc1ccccc1C(=O)[O-].Nc1ccccc1Nc1ccccc1C(=O)[O-].[Cu+2] |  | > 100 | > 100 | > 100 | > 100 |  |  | > 100 | > 100 | > 100 |  |  |  |  |  |  |  |  |  |
| O=C(Nc1ccc(I)cc1C(=O)NCCO)c1cccs1 | > 100 | > 100 | > 100 | > 100 |  | > 100 | > 100 | > 100 |  | > 100 |  |  |  |  |  |  |  |  |  |
| Cc1ccc(-c2cc(N)n(-c3nc4c([nH]3)c(=O)n(C)c(=O)n4C)n2)cc1 | 81.1 | 27.2 | 16 | 13.4 | 21 | 22.8 | > 100 | 15.9 | 16 | 30.8 |  |  |  |  |  |  |  |  |  |
| OCC1CCCC(n2cnc3c(=S)nc[nH]c32)O1 (centres undefined) | > 100 | > 100 |  | > 100 | > 100 | > 100 |  | > 100 | > 100 | > 100 |  |  |  |  |  |  |  |  |  |
| COC1OC(=O)[C@H]2O[N+]([O-])=C(C)[C@@H]12 (some centres undefined) | > 100 | > 100 | > 100 | > 100 | > 100 | > 100 | > 100 | > 100 | > 100 | > 100 |  |  |  |  |  |  |  |  |  |
